US20240382509A1, “Cannabinoids C- and O-glycosides possessing anti-proliferative and anti-metastatic properties and process for preparation thereof” (Council of Scientific and Industrial Research, priority 2021, published 2024)

Experiments:
[1] = test system: γH2AX in HCT-116 cells; assay: γH2AX immunofluorescence after combinatorial treatment of 5FU and compound 2a; format: cell-based; conditions: HCT-116, 750 nM 5FU+3 μM 2a
Description: Assessment of DNA damage by combinatorial treatment of 5FU and Compound 2a. An immunofluorescence study was performed to assess the expression of γH2AX, which tends to form a complex with damaged DNA resulting in the formation of a beads-like structure when tagged with a fluorescent labelled antibody. Briefly, HCT-116 cells were seeded in 8 well chamber slide and treated with vehicle, 750 nM 5FU+3 μM 2a for 36, 48, and 60 h and 750 nM 5FU for 60 h. Following termination of drug treatment, the cells were washed with ice-cold PBS and fixed with 4% paraformaldehyde for 10 min. Subsequently, permeabilization was done by incubating the cells with 0.1% Triton X-100. Before incubating with primary antibody (anti-γH2AX mouse monoclonal antibody), the cells were blocked with 5% BSA for 1-2 h; consequently, the cells were incubated with primary antibody (1:200) for overnight at 4° C. Subsequently, the cells were washed with ice-cold PBS for five times and further incubated with secondary anti-mouse antibody (1:500) for 30 min. The slides, after thorough washing with PBS, were mounted in DAPI containing mounting media. The images were captured in Floid imaging station at 20× optical magnification, and digital zooming was done up to […].
The effect of the compound 2a in combination with DNA damaging drug 5-Fluorouracil in colon adenocarcinoma cells was studied. […]

[2] = test system: γH2AX, RAD-51, BCL-2, Bax, caspase-3 in HCT-116 cells; assay: Immunoblot after combinatorial treatment of 5FU and compound 2a; format: cell-based
Text: The effect of the compound 2a in combination with DNA damaging drug 5-Fluorouracil in colon adenocarcinoma cells was studied. […] Consequently, the major repair factor RAD-51 got diminished as compared to 5FU alone treated lane. The immunoblot results also depicted the downmodulation of cellular survival factor BCL-2 and subsequent upregulation of proapoptotic protein Bax (FIG. 8a). […] Moreover, the effect of the combinatorial treatment on chromosomal stability in HCT-116 cells by chromosome isolation and staining was studied.
The DNA damaging effect of compound 2a in combination with subtoxic doses of 5FU was further analyzed by Annexin/PI staining to check the activation of programmed cell death. […] Cumulatively, compound 2a elevated the DNA damaging effect and eventually leads to programmed cell death in combination with subtoxic doses of 5FU (FIG. 9b).

[3] = test system: MIAPaCa-2 cells; assay: Phase contrast microscopy of cell morphology; format: cell-based, human; conditions: MIAPaCa-2, 0.5 μM to 5 μM
[4] = test system: 4T1 mouse mammary carcinoma cells; assay: 4T1 allograft breast cancer model, anti-tumor and anti-metastatic efficacy; format: in vivo
Description: In vivo anti-metastatic and anti-tumor efficacy studies. 4T1 mouse mammary carcinoma cells is a highly aggressive cell line that forms tumors when grafted in Balb/c mice. […] All the in vivo experimental protocols were approved by the Institutional Animal Ethics Committee, CPCSEA, of the Indian Institute of Integrative Medicine, Jammu. The animals were maintained at 22° C. with a 12 h light-dark cycle and free access to feed and water inside the institutional animal house. Proper care was taken to maintain them in a healthy condition and to avoid any risk of possible pathogenic contaminations. For subcutaneous implantation of 4T1 cells, the Balb/c mice were distributed into four groups bearing five mice in each group. For tumor induction, 1.5 million 4T1 cells were suspended in serum-free media and injected into the mammary pad of the animal and kept in the animal house for tumor induction. After the tumor reached an adequate size (30-150 mm^3) the mice in the allotted groups were treated with vehicle (normal saline), 15 and 30 mg/kg 2a & 30 mg/kg DIM (positive control) for every alternate day and was continued for two weeks. After the treatment, the mice were sacrificed by cervical dislocation, and the tumor was dissected out from the mammary pad, the tumor volume was measured, and images were taken. Subsequently, to examine the anti-metastatic property of the compound 2a, the chest cavity was dissected to remove the lungs, and after washing with PBS, the metastatic nodules in the lung due to 4T1 migration were checked and subsequently counted.
The anti-proliferative as well as anti-metastatic role of compound 2a was studied in 4T1 allograft breast cancer model. Briefly, 1.5×10^6 4T1 mammary breast cancer cells were injected in mouse mammary pad and kept undisturbed until the formation of tumor. Subsequently, the mice were treated with 15 and 30 mg/kg of compound 2a along with a positive control 30 mg/kg di-indoyl methane (DIM) molecule and normal saline as vehicle. The drugs were administered intraperitonially for each alternate day for 2 weeks. The animals were sacrificed and tumours were harvested from the mammary pad and tumor weight was measured (FIG. 7a & b). Moreover, the lungs were also removed and photographed to study the presence of metastatic patches. […] Furthermore, the tumors were subjected to tissue lysis and immunoblot analysis was performed to study the expression of Snail-1. Twist-1, STAT-3, Vimentin and E-cadherin.

[5] = test system: lung adenocarcinoma cells (A549); assay: MTT cell viability assay, A549; format: cell-based; conditions: Homo sapiens, A549, 48 h, read-out: Cytotoxicity (IC50) A549, MTT, 48 h
Description: (§1) Cell viability assay: The cell viability was determined by the standard MTT assay method. Briefly, Panc-1, HCT-116, A549, PC3, MIAPaca-2, HT-29, MDA-MB-231, MCF7 cells, and fR2cells were seeded in 96 well tissue culture plates (Nunc) at a density of 4×10^3 cells per well and treated with varying concentrations of the test compounds in triplicates. DMSO was taken as a vehicle, and its final concentration was maintained at 0.2% in the culture medium. Doxorubicin was employed as a positive control. After 44 h of incubation, MTT dye solution was added into the medium, and cells were incubated for another 4 h at 37° C. in 5% CO2. The amount of colored formazan derivatives formed was measured by taking optical density (OD) using a microplate reader (TECAN, Infinite M200 Pro) at 570 nm, and the percentage of cell viability was calculated. The IC50 values were calculated using GraphPad Prism software (Version 5.0).

[6] = test system: MIAPaCa-2 cells; assay: Wound healing assay; format: cell-based, human; conditions: MIAPaCa-2, 1, 2 and 3 μM, 36 h, compared to 2, 2b, 4, 4a, 4b
Description: Wound healing assay. MIAPaCa-2 cells (1×10^6) were seeded onto 6 well plates and grown up to more than 90% confluency, and wounds were created with sterile pipette tip (20-200 μL), and the media was replaced with serum-free media. Subsequently, the cells were treated with vehicle (DMSO), compounds 3 μM of 2 and 4, and their derivatives, i.e., 1, 2 and 3 μM of 2a, 2b, 4a, 4b for 36 h. Upon termination, the cells were washed with PBS, and images were captured under a microscope at 20× magnification (FIG. 4).

[7] = test system: PC3 cells; assay: MTT cell viability assay, PC3; format: cell-based; conditions: Homo sapiens, PC-3, 48 h, read-out: Cytotoxicity (IC50) PC3, MTT, 48 h
Description: as §1

[8] = HCT-116, 2a in combination with 5FU
[9] = tumor lysate immunoblot, 30 mg/kg

## CCCCCc1cc(O[C@@H]2OC(CO)[C@@H](O)C(O)C2O)c2c(c1)OC(C)(C)[C@@H]1CCC(C)=C[C@@H]21 (stereo partly drawn) [Compound 2a, Δ^9-tetrahydrocannabinol-1-O-β-D-glucopyranoside]
[1]
  expression of γH2AX (immunocytochemistry): increased expression
[2]; HCT-116, 2a in association with 5FU, 48 and 60 h
  caspase-3 cleavage: incite caspase-3 cleavage
[2]; [8]
  BCL-2 survival factor: downmodulation
  proapoptotic protein Bax: upregulation
[2]; HCT-116, 2a in combination with 5FU, 36 and 48 h
  expression of γH2AX protein (immunoblot): enhanced expression
[2]; HCT-116, 2a in combination with 5FU, compared to 5FU alone
  RAD-51 repair factor: diminished
[3]
  mesenchymal (fibroblastic) morphology: gradual loss of mesenchymal (fibroblastic) morphology
[4]; Balb/c mice, 4T1, 15 & 30 mg/kg intraperitoneal, alternate day for 2 weeks
  metastatic white patches on lungs: white patches were not observed
[4]; Balb/c mice, 4T1, 15 and 30 mg/kg intraperitoneal, alternate day for 2 weeks, vs normal saline
  tumor weight: drastically reduced
[4]; [9]
  tumor E-cadherin level: increased considerably
  tumor expression of Twist-1: curbed
[4]; tumor lysate immunoblot, 15 and 30 mg/kg
  tumor expression of Snail-1, STAT-3 and Vimentin: decreases significantly
[5]
  IC50: 1.44 µM
[6]
  anti-migratory properties in wound healing assay: most prominent anti-migratory properties
[7]
  IC50: 7.17 µM
